This note sets out measurements from US5252571A, “1,4-benzothiazine-2-acetic acid derivatives” (Sapporo Breweries Limited, priority 1990, dated 1993).

One series deals with ICR strain mice. In words: Safety test, single oral administration in mice with 14 days observation. Type of series: in vivo. To be noted: 300 mg/kg oral, male ICR mice. The protocol: Next, safety of the compounds of the present invention was verified by the following test.
After normal ICR strain mice (male, 7 weeks age, 5 mice being into one group) was fasted for 18 hours, each compound (300 mg/kg) of Examples 1311, 132, 134, 156, 173, 179, 183 and 188 was orally administered in the form of 0.5% carboxymethylcellulose suspension. In the control group, 0.5% carboxymethylcellulose solution alone was orally administered. […] During the observation, mice were free access to feed and water.

Another series deals with T1, aldose reductase (Sus scrofa, UniProt P80276).
T1 construct: porcine crystalline lens stored at -80° C. was homogenized in distilled water; from tissue; host or cells: porcine crystalline lens
In words: Aldose reductase inhibitory activity (porcine crystalline lens enzyme). To be noted: d1-glyceraldehyde 3 mM, pH 6.2, 25° C., 2 minutes. It counts as biochemical. Here is the method: Aldose reductase enzyme standard was prepared from porcine crystalline lens by the method of Hayman et al. (cf., S. Hayman et al., Journal of Biological Chemistry, 240, 877-882, 1965). That is, porcine crystalline lens stored at -80° C. was homogenized in distilled water followed by centrifugation at 10,000 XG for 15 minutes. The supernatant was dissolved to make 40% ammonium sulfate solution. The supernatant centrifuged at 10,000 XG for further 10 minutes was dialyzed to 0.05 M sodium chloride solution overnight. The thus obtained dialysate was used as the enzyme standard.
The activity of aldose reductase was determined by the method of Hayman et al. supra. That is, 25 μl of the enzyme solution described above and […] of a drug solution in 1% DMSO having various concentrations were added to 200 μl of 40 mM phosphate buffer (pH 6.2) prepared to contain […] lithium sulfate and 0.1 MM NADPH (reduced nicotinamide adenine dinucleotide phosphate) in final concentrations and Containing 3 mM d1-glyceraldehyde as substrate, respectively. Thereafter, the mixture was reacted at 25° C. for 2 minutes and change in absorbance at 340 nm was determined using COBAS FARA II (Roche Co.).

The test system of series [1] is tissue sorbitol in streptozotocin-induced diabetic rats. In words: Inhibitory activity of accumulation of tissue sorbitol in streptozotocin-induced diabetic rats. Type of series: in vivo, Sprague-Dawley rats. The following applies: 30 mg/kg oral 4, 8 and 24 hours after streptozotocin, control = 100%, Tukey's test *p < 0.05, **p < 0.01; for Accumulation of Tissue Sorbitol (%), Nerve: sciatic nerve. The protocol: 4) Inhibitory activity of accumulation of tissue sorbitol in streptozatocini-induced diabetic rats.
Sprague-Dawley rats (male,6 weeks of age, one group composed of 5 to 6 rats), fasted overnight, were made diabetic by single intravenous injection of 60 mg/kg body weight of streptozotocin (SIGMA Co. ) , which had been freshly dissolved in normal saline solution.
The compound was orally administered in the form of 0.5% carboxymethylcellulose suspension in a dose of 30 mg/kg 4, 8 and 24 hours after the injection of streptozotocin. During the test, rats were free access to feed and water. Three hours after the final administration, the sorbitol contens in tissues (red blood cell, sciatic nerve, lens) Were determined by the enzyme method of Bergmeyer et al. [cf., H. Y. Bergmeyer et al., Methods of Enzymatic Analysis, 3, 1323-1330, 1974], using SDH (sorbitol dehydrogenase) and AND (β-nicotinamide adenine dinucleotide). The results are shown by percentage (%) when the value obtained with control group administered with 0.5% carboxymethylcellulose solution as a solvent instead of the compound was made 100%.

In general, IC50 refers to the concentration at which inhibition is half-maximal.

In the case of `O=C(O)CC1Sc2ccccc2N(Cc2nc3cc(F)ccc3s2)C1=O` (centres unmarked) [Example 131, 2-[4-(5-fluorobenzothiazol-2-yl]methyl-3,4-dihydro-3-oxo-2H-1,4-benzothiazin-2-yl]acetic acid], in the series on ICR strain mice, the body weight result is “progressed as in the control group” and the mice dead result is reported as “none”. The compound further had a half-maximal inhibitory concentration (IC50) on aldose reductase of 0.015 µM.

In the case of `Cc1ccc2c(c1)N(Cc1nc3cc(F)ccc3s1)C(=O)C(CC(=O)O)S2` (centres unmarked) [Example 132, 2-[4-(5-Fluorobenzothiazol-2-yl)methyl-6-methyl-3,4-dihydro-3-oxo-2H -1,4-benzothiazin-2-yl]acetic acid], in the series with ICR strain mice, the body weight entry was “progressed as in the control group” and the mice dead result is “none”.

For `CCOc1ccc2c(c1)SC(CC(=O)O)C(=O)N2Cc1nc2cc(F)ccc2s1` (centres unmarked) [Example 133, 2-[7-Ethoxy-4-(5-fluorobenzothiazol-2-yl)methyl-3,4-dihydro-3-oxo-2H-1,4-benzothiazin-2-yl]acetic acid], half-maximal inhibition against aldose reductase (IC50) was put at 0.015 µM. In other words, the double-digit nanomolar range.

Regarding `Cc1cc(C)c2c(c1)N(Cc1nc3cc(F)ccc3s1)C(=O)C(CC(=O)O)S2` (centres unmarked) [Example 134, 2-[6,8-Dimethyl-4-(5-fluorobenzothiazol-2-yl)methyl-3,4-dihydro-3-oxo-2H-1,4-benzothiazin-2-yl]acetic acid], in the series on ICR strain mice, the body weight entry is “progressed as in the control group” and the mice dead result is “none”.

`Cc1ccc2c(c1)N(Cc1nc3cc(Cl)ccc3s1)C(=O)C(CC(=O)O)S2` (centres unmarked) [Example 139] yielded a half-maximal inhibitory concentration (IC50) on aldose reductase of 0.014 µM. This counts as double-digit nanomolar.

Regarding `O=C(O)CC1Sc2ccccc2N(Cc2nc3c(Cl)c(Cl)ccc3s2)C1=O` (centres unmarked) [Example 154, 2-[4-(4,5-Dichlorobenzothiazol-2-yl)methyl-3,4-dihydro-3-oxo-2H-1,4-benzothiazin-2-yl]acetic acid], in series [1], the “Accumulation of Tissue Sorbitol (%), Lens” value (shortened to “Accumulation … (%), Lens”) amounted to 59.0%; the “Accumulation of Tissue Sorbitol (%), Red Blood Cell” value (“Accumulation … (%), Red Blood Cell” below) was found to be 3.3%; the “Accumulation of Tissue Sorbitol (%), Nerve” value (“Accumulation … (%), Nerve” below) is reported as 18.6%.

Take `O=C(O)CC1Sc2ccccc2N(Cc2nc3ccc(F)c(F)c3s2)C1=O` (centres unmarked) [Example 155, 2-[4-(6,7-Difluorobenzothiazol-2-yl)methyl-3,4-dihydro-3-oxo-2H-1,4-benzothiazin-2-yl]acetic acid]: in series [1], the “Accumulation … (%), Lens” value is on record as 36.8%; the “Accumulation … (%), Red Blood Cell” value was determined as 0.0%; the “Accumulation … (%), Nerve” value was found to be 7.0%. Further, the IC50 against aldose reductase was determined as 0.014 µM.

Turning to `Cc1ccc2c(c1)N(Cc1nc3c(Cl)c(Cl)ccc3s1)C(=O)C(CC(=O)O)S2` (centres unmarked) [Example 156, 2-[4-(4,5-Dichlorobenzothiazol-2-yl)methyl-6-methyl-3,4-dihydro-3-oxo-2H-1,4-benzothiazin-2-yl]acetic acid], in the series with ICR strain mice, the body weight result is on record as “progressed as in the control group” and the mice dead entry is recorded as “none”.

Regarding `O=C(O)CC1Sc2ccccc2N(Cc2nc3c(F)ccc(F)c3s2)C1=O` (centres unmarked) [Example 158, 2-[4-(4,7-Difluorobenzothiazol-2-yl)methyl-3,4-dihydro-3-oxo-2H-1,4-benzothiazin-2-yl]acetic acid], in series [1], the “Accumulation … (%), Lens” value was found to be 58.4%; the “Accumulation … (%), Red Blood Cell” value was 39.2%; the “Accumulation … (%), Nerve” value is 33.1%.

Turning to `O=C(O)CC1Sc2ccccc2N(Cc2nc3ccc(Cl)c(Cl)c3s2)C1=O` (centres unmarked) [Example 160, 2-[4-(6,7-Dichlorobenzothiazol-2-.yl)methyl-3,4-dihydro-3-oxo-2H-1,4-benzothiazin-2-yl]acetic acid], at aldose reductase, the 50% inhibitory concentration (IC50) came to 0.014 µM.

Compound `O=C(O)CC1Sc2ccccc2N(Cc2nc3c(Cl)c(Cl)cc(Cl)c3s2)C1=O` (centres unmarked) [Example 166, 2-[4-(4,5,7-Trichlorobenzothiazol-2-yl)methyl-3,4-dihydro-3-oxo-2H-1,4-benzothiazin-2-yl]acetic acid] returned a concentration for half-maximal inhibition (IC50) against aldose reductase of 0.0091 µM. Compared with the last compound, the IC50 is about 1.5-fold lower.

As for `O=C(O)CC1Sc2ccccc2N(Cc2nc3cc(F)cc(F)c3s2)C1=O` (centres unmarked) [Example 173, 2-[4-(5,7-Difluorobenzothiazol-2-yl)methyl-3,4-dihydro-3-oxo-2H-1,4-benzothiazin-2-yl]acetic acid], in the series on ICR strain mice, the body weight result is listed as “progressed as in the control group” and the mice dead entry is on record as “none”. At aldose reductase, this compound gave an IC50 of 0.014 µM.

In turn, `Cc1ccc2c(c1)N(Cc1nc3c(F)cccc3s1)C(=O)C(CC(=O)O)S2` (centres unmarked) [Example 176, 2-[4-(4-Fluorobenzothiazol-2-yl)methyl-6-methyl-3,4-dihydro-3-oxo-2H-1,4-benzothiazin-2-yl]acetic acid] displayed an IC50 on aldose reductase of 0.014 µM. That is a double-digit nanomolar value.

As to `O=C(O)CC1Sc2cccc(F)c2N(Cc2nc3cc(F)ccc3s2)C1=O` (centres unmarked) [Example 177, 2-[5-Fluoro-4-(5-fluorobenzothiazol-2-yl)methyl-3,4-dihydro-3-oxo-2H-1,4-benzothiazin-2-yl]acetic acid], half-maximal inhibition on aldose reductase (IC50) was put at 0.016 µM.

`Cc1ccc2c(c1)N(Cc1nc3cc(F)cc(F)c3s1)C(=O)C(CC(=O)O)S2` (centres unmarked) [Example 179, 2-[4-(5,7-Difluorobenzothiazol-2-yl)methyl-6-methyl-3,4-dihydro-3-oxo-2H-1,4-benzothiazin-2-yl]acetic acid]: in the series on ICR strain mice, the body weight result is recorded as “progressed as in the control group” and the mice dead entry is listed as “none”.

Compound `O=C(O)CC1Sc2cc(F)ccc2N(Cc2nc3cc(F)cc(F)c3s2)C1=O` (centres unmarked) [Example 182, 2-[4-(5,7-Difluorobenzothiazol-2-yl)methyl-7-fluoro-3,4-dihydro-3-oxo-2H-1,4-benzothiazin-2-yl]acetic acid] came in with an IC50 against aldose reductase of 0.012 µM.

In turn, `O=C(O)CC1Sc2cc(OC(F)(F)F)ccc2N(Cc2nc3cc(F)cc(F)c3s2)C1=O` (centres unmarked) [Example 187, 2-[4-(5,7-Difluorobenzothiazol-2-yl)methyl-7-trifluoromethoxy-3,4-dihydro-3-oxo-2H-1,4-benzothiazin-2-yl]acetic acid] came in with an IC50 on aldose reductase of 0.0098 µM.

For `Cc1ccc2c(c1)SC(CC(=O)O)C(=O)N2Cc1nc2ccc(F)c(F)c2s1` (centres unmarked) [Example 199, 2-[4-(6,7-Difluorobenzothiazol-2-yl)methyl-7-methyl-3,4-dihydro-3-oxo-2H-1,4-benzothiazin-2-yl]acetic acid], it took 0.0077 µM to reach half-maximal inhibition on aldose reductase (IC50).

On aldose reductase, `O=C(O)CC1Sc2cc(Cl)ccc2N(Cc2nc3c(F)c(F)cc(F)c3s2)C1=O` (centres unmarked) [Example 202, 2-[4-(4,5,7-Trifluorobenzothiazol-2-yl)methyl-7-chloro-3,4-dihydro-3-oxo-2H-1,4-benzothiazin-2-yl]acetic acid] came in with a concentration for half-maximal inhibition (IC50) of 0.0087 µM.

With `COc1ccc2c(c1)N(Cc1nc3c(Cl)c(Cl)ccc3s1)C(=O)C(CC(=O)O)S2` (centres unmarked) [Example 206, 2-[4-(4,5-Dichlorobenzothiazol-2-yl)methyl-6-methoxy-3,4-dihydro-3-oxo-2H-1,4-benzothiazin-2-yl]acetic acid], the IC50 at aldose reductase was determined as 0.0068 µM.

Take `O=C(O)CC1Sc2c(F)cccc2N(Cc2nc3c(F)c(F)cc(F)c3s2)C1=O` (centres unmarked) [Example 208, 2-[4-(4,5,7-Trifluorobenzothiazol-2-yl)methyl-8-fluoro-3,4-dihydro-3-oxo-2H-1,4-benzothiazin-2-yl]acetic acid]: in series [1], the “Accumulation … (%), Lens” value is given as 31.5%; the “Accumulation … (%), Red Blood Cell” value is 22.9%; the “Accumulation … (%), Nerve” value amounted to 0.0%.

For the compound `O=C(O)CC1Sc2ccc(F)cc2N(Cc2nc3c(F)c(F)ccc3s2)C1=O` (centres unmarked) [Example 209, 2-[4-(4,5-Difluorobenzothiazol-2-yl)methyl-6-fluoro-3,4-dihydro-3-oxo-2H-1,4-benzothiazin-2-yl]acetic acid], in series [1], the “Accumulation … (%), Lens” value is 25.2%; the “Accumulation … (%), Red Blood Cell” value is reported as 24.7%; the “Accumulation … (%), Nerve” value worked out at 3.1%.
